{
  "source": "patent US20260034113A1",
  "about": "“THIADIAZOLONE DERIVATIVES, COMPOSITIONS AND USES THEREOF” (Danatlas Pharmaceuticals Co., Ltd., priority 2023, published 2026)",
  "data": [
    {"biological_target": "PolQ (1-899) (Homo sapiens (Human), UniProt O75417)", "sequence (O75417 1-899)": "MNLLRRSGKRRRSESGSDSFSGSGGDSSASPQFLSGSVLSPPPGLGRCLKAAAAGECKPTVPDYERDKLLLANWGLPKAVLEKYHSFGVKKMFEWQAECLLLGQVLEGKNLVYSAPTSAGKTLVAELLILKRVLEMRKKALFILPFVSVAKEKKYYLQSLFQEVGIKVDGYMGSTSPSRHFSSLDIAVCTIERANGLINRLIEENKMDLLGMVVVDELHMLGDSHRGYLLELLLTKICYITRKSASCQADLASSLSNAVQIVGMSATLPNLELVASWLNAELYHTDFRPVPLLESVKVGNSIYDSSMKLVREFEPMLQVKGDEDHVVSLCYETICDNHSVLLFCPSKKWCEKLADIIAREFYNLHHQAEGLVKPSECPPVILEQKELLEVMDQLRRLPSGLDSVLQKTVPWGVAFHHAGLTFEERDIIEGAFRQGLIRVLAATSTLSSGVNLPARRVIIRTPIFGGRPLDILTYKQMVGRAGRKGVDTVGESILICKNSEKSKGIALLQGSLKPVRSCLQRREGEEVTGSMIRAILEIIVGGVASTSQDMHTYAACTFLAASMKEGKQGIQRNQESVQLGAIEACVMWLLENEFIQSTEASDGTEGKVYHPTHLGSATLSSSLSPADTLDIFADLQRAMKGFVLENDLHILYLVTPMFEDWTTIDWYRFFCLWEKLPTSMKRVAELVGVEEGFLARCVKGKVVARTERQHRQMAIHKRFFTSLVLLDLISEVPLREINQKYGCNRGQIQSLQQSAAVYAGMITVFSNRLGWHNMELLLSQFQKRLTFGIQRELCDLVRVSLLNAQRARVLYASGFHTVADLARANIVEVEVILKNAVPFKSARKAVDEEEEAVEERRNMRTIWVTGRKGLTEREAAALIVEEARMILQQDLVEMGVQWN", "assay": "PolQ ATPase assay (ADP-Glo)", "format": "biochemical", "conditions": "not given", "procedure": "(§1) The ability of the compounds of the present disclosure to inhibit ATPase activity of PolQ (1-899) was determined using the assay described below.\n(§2) PolQ ATPase activity was determined by ADP-Glo assay. 10-point dilution series of compounds were used in a 384 well format for the inhibition assays. PolQ (1-899) (1 nM) in assay buffer (20 mM Tris HCl (pH 8.0), 80 mM KCl, 10 mM MgCl2, 1 mM DTT, 0.01% BSA, 0.01% Tween, 5% glycerol) was transferred to the test wells (20 uL), except the low control wells (20 μL of assay buffer was added to the low control wells). The plate was then incubated at room temperature for 30 min. An equal volume (20 μL) of 100 μM ATP, 150 nM ssDNA containing 50 thymine bases in assay buffer was added to all the test wells. The plates were covered and left to incubate for 60 min. at room temperature before the addition of the ADP Glo detection reagents. After 60 min. incubation, transfer 5 μL reaction mix to another 384-well plate and add 5 μL ADP Glo and plates incubated for 60 min. before addition of 10 μL kinase detection reagent. After the addition of the kinase detection reagent, the plates were covered and incubated for 60 min. and read luminescence on Envision\n(§3) Percent inhibition was calculated as follows:\n(§4) [formula] • where “Max” is the high control (DMSO) and “Min” is the no enzyme control.\n(§5) IC50 values were calculated using a four-parameter logistic curve fit using the following formula: […]\n(§6) IC50 values were determined by fitting the data to the standard 4 parameters with Hill Slope using GraphPad Prism software.", "units": {"IC50": "nM"}, "values": [
      {"compound": "COc1ccc(Cl)c(F)c1-c1cc(C)ncc1C(=O)Nc1nn(CC(=O)N2CC[C@@H](N(C)C)C2)c(=O)s1", "note": "[Example 9, 4-(3-Chloro-2-fluoro-6-methoxyphenyl)-N-(4-(2-((R)-3-(dimethylamino)pyrrolidin-1-yl)-2-oxoethyl)-5-oxo-4,5-dihydro-1,3,4-thiadiazol-2-yl)-6-methylnicotinamide]", "IC50": "10 to 100"},
      {"compound": "COc1cnc(Cl)cc1-c1cc(C)ncc1C(=O)Nc1nn(CCCCO)c(=O)s1", "note": "[Example 29, 2′-Chloro-N-(4-(4-hydroxybutyl)-5-oxo-4,5-dihydro-1,3,4-thiadiazol-2-yl)-5′-methoxy-6-methyl-[4,4′-bipyridine]-3-carboxamide]", "IC50": "10 to 100"},
      {"compound": "COc1ccccc1-c1cc(C)ncc1C(=O)Nc1nn(CCCCO)c(=O)s1", "note": "[Example 24, N-(4-(4-Hydroxybutyl)-5-oxo-4,5-dihydro-1,3,4-thiadiazol-2-yl)-4-(2-methoxyphenyl)-6-methylnicotinamide]", "IC50": "10 to 100"},
      {"compound": "COc1ccc(Cl)c(F)c1-c1cc(C)ncc1C(=O)Nc1nn(CC(=O)N2CC[C@H](N(C)C)C2)c(=O)s1", "note": "[Example 10, 4-(3-Chloro-2-fluoro-6-methoxyphenyl)-N-(4-(2-((S)-3-(dimethylamino)pyrrolidin-1-yl)-2-oxoethyl)-5-oxo-4,5-dihydro-1,3,4-thiadiazol-2-yl)-6-methylnicotinamide]", "IC50": "10 to 100"}
    ]},
    {"biological_target": "PolQ (1-899) (Homo sapiens (Human), UniProt O75417)", "assay": "PolQ ATPase assay (ADP-Glo)", "format": "biochemical", "conditions": "inhibition of ATPase activity of PolQ (1-899), 1 nM enzyme, 100 μM ATP, 150 nM ssDNA, ADP-Glo", "procedure": "as §1, §2, §3, §4, §5, §6", "units": {"IC50": "nM"}, "values": [
      {"compound": "COc1ccc(Cl)c(F)c1-c1cc(C)ncc1C(=O)Nc1nn(CCO)c(=O)s1", "note": "[Example 6, 4-(3-Chloro-2-fluoro-6-methoxyphenyl)-N-(4-(2-hydroxyethyl)-5-oxo-4,5-dihydro-1,3,4-thiadiazol-2-yl)-6-methylnicotinamide]", "IC50": "< 10"},
      {"compound": "COc1ccc(Cl)c(F)c1-c1cc(C)ncc1C(=O)Nc1nn(CCCO)c(=O)s1", "note": "[Example 7, 4-(3-Chloro-2-fluoro-6-methoxyphenyl)-N-(4-(3-hydroxypropyl)-5-oxo-4,5-dihydro-1,3,4-thiadiazol-2-yl)-6-methylnicotinamide]", "IC50": "< 10"},
      {"compound": "COc1ccc(Cl)cc1-c1cc(C)ncc1C(=O)Nc1nn(CCCCO)c(=O)s1", "note": "[Example 25, 4-(5-Chloro-2-methoxyphenyl)-N-(4-(4-hydroxybutyl)-5-oxo-4,5-dihydro-1,3,4-thiadiazol-2-yl)-6-methylnicotinamide]", "IC50": "< 10"},
      {"compound": "COc1ccc(Cl)c(F)c1-c1cc(C)ncc1C(=O)Nc1nn(CCCCO)c(=O)s1", "note": "[Example 14, 4-(3-Chloro-2-fluoro-6-methoxyphenyl)-N-(4-(4-hydroxybutyl)-5-oxo-4,5-dihydro-1,3,4-thiadiazol-2-yl)-6-methylnicotinamide]", "IC50": "< 10"},
      {"compound": "COCCCn1nc(NC(=O)c2cnc(C)cc2-c2c(OC)ccc(Cl)c2F)sc1=O", "note": "[Example 4, 4-(3-Chloro-2-fluoro-6-methoxyphenyl)-N-(4-(3-methoxypropyl)-5-oxo-4,5-dihydro-1,3,4-thiadiazol-2-yl)-6-methylnicotinamide]", "IC50": "< 10"},
      {"compound": "COc1ccc(Cl)c(F)c1-c1cc(C)ncc1C(=O)Nc1nn(CCC(C)(C)O)c(=O)s1", "note": "[Example 15, 4-(3-Chloro-2-fluoro-6-methoxyphenyl)-N-(4-(3-hydroxy-3-methylbutyl)-5-oxo-4,5-dihydro-1,3,4-thiadiazol-2-yl)-6-methylnicotinamide]", "IC50": "< 10"},
      {"compound": "COc1ccc(Cl)c(F)c1-c1cc(C)ncc1C(=O)Nc1nn(CCC#N)c(=O)s1", "note": "[Example 11, 4-(3-Chloro-2-fluoro-6-methoxyphenyl)-N-(4-(2-cyanoethyl)-5-oxo-4,5-dihydro-1,3,4-thiadiazol-2-yl)-6-methylnicotinamide]", "IC50": "< 10"},
      {"compound": "COc1ccc(Cl)c(F)c1-c1cc(C)ncc1C(=O)Nc1nn(CCCC#N)c(=O)s1", "note": "[Example 12, 4-(3-Chloro-2-fluoro-6-methoxyphenyl)-N-(4-(3-cyanopropyl)-5-oxo-4,5-dihydro-1,3,4-thiadiazol-2-yl)-6-methylnicotinamide]", "IC50": "< 10"},
      {"compound": "COc1ccc(Cl)c(F)c1-c1cc(-c2ccn(C)n2)ncc1C(=O)Nc1nn(CCCCO)c(=O)s1", "note": "[Example 30, 4-(3-Chloro-2-fluoro-6-methoxyphenyl)-N-(4-(4-hydroxybutyl)-5-oxo-4,5-dihydro-1,3,4-thiadiazol-2-yl)-6-(1-methyl-1H-pyrazol-3-yl)nicotinamide]", "IC50": "< 10"},
      {"compound": "COc1ccc(Cl)c(F)c1-c1cc(C)ncc1C(=O)Nc1nn(CC(C)O)c(=O)s1", "note": "(stereo not shown) [Example 20, 4-(3-Chloro-2-fluoro-6-methoxyphenyl)-N-(4-(2-hydroxypropyl)-5-oxo-4,5-dihydro-1,3,4-thiadiazol-2-yl)-6-methylnicotinamide]", "IC50": "< 10"},
      {"compound": "COc1ccc(C(F)(F)F)c(F)c1-c1cc(C)ncc1C(=O)Nc1nn(CCCO)c(=O)s1", "note": "[Example 13, 4-(2-Fluoro-6-methoxy-3-(trifluoromethyl)phenyl)-N-(4-(3-hydroxypropyl)-5-oxo-4,5-dihydro-1,3,4-thiadiazol-2-yl)-6-methylnicotinamide]", "IC50": "< 10"},
      {"compound": "COc1ccc(Cl)c(F)c1-c1cc(C)ncc1C(=O)Nc1nn(CC2CC(O)C2)c(=O)s1", "note": "(stereo not shown) [Example 17, 4-(3-Chloro-2-fluoro-6-methoxyphenyl)-N-(4-((3-hydroxycyclobutyl)methyl)-5-oxo-4,5-dihydro-1,3,4-thiadiazol-2-yl)-6-methylnicotinamide]", "IC50": "< 10"},
      {"compound": "COc1ccc(C(F)(F)F)c(F)c1-c1cc(C)ncc1C(=O)Nc1nn(CCCCO)c(=O)s1", "note": "[Example 27, 4-(2-Fluoro-6-methoxy-3-(trifluoromethyl)phenyl)-N-(4-(4-hydroxybutyl)-5-oxo-4,5-dihydro-1,3,4-thiadiazol-2-yl)-6-methylnicotinamide]", "IC50": "< 10"},
      {"compound": "COc1ccc(Cl)c(F)c1-c1cc(C)ncc1C(=O)Nc1nn(CC(F)(F)F)c(=O)s1", "note": "[Example 2, 4-(3-Chloro-2-fluoro-6-methoxyphenyl)-6-methyl-N-(5-oxo-4-(2,2,2-trifluoroethyl)-4,5-dihydro-1,3,4-thiadiazol-2-yl)nicotinamide]", "IC50": "< 10"},
      {"compound": "CCC(O)Cn1nc(NC(=O)c2cnc(C)cc2-c2c(OC)ccc(Cl)c2F)sc1=O", "note": "(stereo not shown) [Example 21, 4-(3-Chloro-2-fluoro-6-methoxyphenyl)-N-(4-(2-hydroxybutyl)-5-oxo-4,5-dihydro-1,3,4-thiadiazol-2-yl)-6-methylnicotinamide]", "IC50": "< 10"},
      {"compound": "COc1ccccc1-n1cncc1C(=O)Nc1nn(CCCCO)c(=O)s1", "note": "[Example 23, N-(4-(4-Hydroxybutyl)-5-oxo-4,5-dihydro-1,3,4-thiadiazol-2-yl)-1-(2-methoxyphenyl)-1H-imidazole-5-carboxamide]", "IC50": "> 500"},
      {"compound": "COc1ccc(Cl)c(F)c1-c1cc(C)ncc1C(=O)Nc1nn(CCn2cccn2)c(=O)s1", "note": "[Example 18, N-(4-(2-(1H-pyrazol-1-yl)ethyl)-5-oxo-4,5-dihydro-1,3,4-thiadiazol-2-yl)-4-(3-chloro-2-fluoro-6-methoxyphenyl)-6-methylnicotinamide]", "IC50": "< 10"},
      {"compound": "COc1ccc(Cl)c(F)c1-c1cc(C)ncc1C(=O)Nc1nn(CC(=O)O)c(=O)s1", "note": "[Example 8, 2-(5-(4-(3-Chloro-2-fluoro-6-methoxyphenyl)-6-methylnicotinamido)-2-oxo-1,3,4-thiadiazol-3(2H)-yl)acetic acid]", "IC50": "< 10"},
      {"compound": "COc1ccc(Cl)c(F)c1-c1cc(C)ncc1C(=O)Nc1nn(CCC(C)O)c(=O)s1", "note": "(stereo not shown) [Example 16, 4-(3-Chloro-2-fluoro-6-methoxyphenyl)-N-(4-(3-hydroxybutyl)-5-oxo-4,5-dihydro-1,3,4-thiadiazol-2-yl)-6-methylnicotinamide]", "IC50": "< 10"},
      {"compound": "CCn1nc(NC(=O)c2cnc(C)cc2-c2c(OC)ccc(Cl)c2F)sc1=O", "note": "[Example 3, 4-(3-Chloro-2-fluoro-6-methoxyphenyl)-N-(4-ethyl-5-oxo-4,5-dihydro-1,3,4-thiadiazol-2-yl)-6-methylnicotinamide]", "IC50": "< 10"},
      {"compound": "COCCn1nc(NC(=O)c2cnc(C)cc2-c2c(OC)ccc(Cl)c2F)sc1=O", "note": "[Example 1, 4-(3-Chloro-2-fluoro-6-methoxyphenyl)-N-(4-(2-methoxyethyl)-5-oxo-4,5-dihydro-1,3,4-thiadiazol-2-yl)-6-methylnicotinamide]", "IC50": "< 10"},
      {"compound": "COc1ccc(C)c(F)c1-c1cc(C)ncc1C(=O)Nc1nn(CCCCO)c(=O)s1", "note": "[Example 28, 4-(2-Fluoro-6-methoxy-3-methylphenyl)-N-(4-(4-hydroxybutyl)-5-oxo-4,5-dihydro-1,3,4-thiadiazol-2-yl)-6-methylnicotinamide]", "IC50": "< 10"},
      {"compound": "COCCCCn1nc(NC(=O)c2cnc(C)cc2-c2c(OC)ccc(Cl)c2F)sc1=O", "note": "[Example 5, 4-(3-Chloro-2-fluoro-6-methoxyphenyl)-N-(4-(4-methoxybutyl)-5-oxo-4,5-dihydro-1,3,4-thiadiazol-2-yl)-6-methylnicotinamide]", "IC50": "< 10"},
      {"compound": "COc1ccc(Cl)c(F)c1-c1cnccc1C(=O)Nc1nn(CCCCO)c(=O)s1", "note": "[Example 22, 3-(3-Chloro-2-fluoro-6-methoxyphenyl)-N-(4-(4-hydroxybutyl)-5-oxo-4,5-dihydro-1,3,4-thiadiazol-2-yl)isonicotinamide]", "IC50": "< 10"}
    ]}
  ]
}
